# Columns and labels:
# HUVEC = HUVEC monolayer model of endothelial gap formation (VE-cadherin staining); assay type: cell-based, human; conditions: for EC gap formation, screening of inflammatory inhibitors: FIG. 8, 5 μM; for EC gap formation induced by VEGF / EC gap formation induced by IL-8 / EC gap formation induced by BK / EC gap formation, agonist alone: 5 μM; for EC gap formation induced by VEGF: 100 ng/ml VEGF; for EC gap formation induced by IL-8: 150 ng/ml IL-8; for EC gap formation induced by BK: 0.5 μM BK; for EC gap formation, agonist alone: no inflammatory mediator
# Procedure: HUVECs were seeded on coverslips coated with fibronectin (Millipore Sigma) and cultured to confluency. […] HUVECs fixed with 2% cold paraformaldehyde (Electron Microscopy Science) and treated with 0.1% triton X-100 (Fisher) were exposed to a human VE-cadherin antibody (Santa Cruz) followed by the secondary antibody conjugated with Alexa488 (Invitrogen). Coverslips were mounted to slides using the antifade mounting medium with DAPI (Vector Laboratories).
# [1] = test system: MAPK/ERK, PI3K/AKT, NF-κB and vascular permeability regulation pathways; test: Off-target effects on key signaling pathways by western blotting in HUVEC; assay type: cell-based, human; conditions: versus DMSO control
# Procedure: (§1) A monolayer of HUVEC cells following varying treatments were lyzed in RIPA buffer containing protease and phosphatase inhibitors (Pierce Biotechnologies). 20 μg of cell lysate was used for western blotting and probed with antibodies according to the suppliers' recommendations to assess off target effects on several major signaling pathways. Antibodies to p-ERK, ERK, p-PI3K, PI3K, p-FAK, FAK, p-PAK1, PAK1, p-PAK2, PAK2, p-MLC, p-NF-κB, NF-κB were used to probe western blots (Cell Signaling). α-Tubulin (Millipore Sigma) was used as a loading control.
# S1PR1 = S1PR1 (Homo sapiens, UniProt P21453); test: S1P1 GPCR cell-based agonist arrestin biosensor assay (Eurofins DiscoverX); conditions: FIG. 1C
# S1PR1, sequence (P21453 whole entry): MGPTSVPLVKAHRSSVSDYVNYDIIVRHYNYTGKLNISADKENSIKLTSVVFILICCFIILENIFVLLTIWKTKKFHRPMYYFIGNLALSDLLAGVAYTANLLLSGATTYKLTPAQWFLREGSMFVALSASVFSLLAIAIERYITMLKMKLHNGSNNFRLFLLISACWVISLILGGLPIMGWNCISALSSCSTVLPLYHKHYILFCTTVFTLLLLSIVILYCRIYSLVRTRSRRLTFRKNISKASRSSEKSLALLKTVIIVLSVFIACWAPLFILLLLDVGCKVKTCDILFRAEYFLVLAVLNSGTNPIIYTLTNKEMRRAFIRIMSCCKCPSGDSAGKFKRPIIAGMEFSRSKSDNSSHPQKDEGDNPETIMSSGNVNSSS
# From the text: 4-Phenyl-5-trifluoromethyl-thiophene-2-carboxylic acid (1) was first converted in situ to the corresponding acid chloride by treating with oxalyl chloride in the presence of catalytic N,N-dimethyl formamide. […] The structures of Intermediate 3 and Compound I were characterized on the basis of NMR and mass spectrometry.
# [2] = test system: myosin light chain (MLC) phosphorylation; test: Western blotting of MLC phosphorylation in HUVEC; assay type: cell-based, human
# Procedure: as §1
# [3] = test system: intact rat mesenteric venules; test: Hydraulic conductivity (Lp) in individually perfused rat mesenteric microvessels; assay type: in vivo
# Procedure: Experiments were undertaken on mesenteric venules from female Sprague-Dawley rats (2-3-month old, 220-250 g body weight, Sage Laboratory). Inactin hydrate was used for anesthesia through subcutaneous administration. The initial dosage of inactin was 180 mg/kg body weight and an additional 5 mg/dose given as needed. After the rat reached the appropriate plane of anesthesia, determined by the loss of the toe pinch response and the righting reflex, a midline surgical incision was made in the abdominal wall. A loop of the ileum was gently extended from the abdominal cavity and the mesentery was spread over a pillar attached to an animal tray. The upper surface of the mesentery was continuously perfused with mammalian Ringer's solution at 37° C. All experiments were carried out on venules with diameters ranging between […]. Each experiment was performed on a single vessel with one experiment per animal. Euthanasia was performed through bilateral thoracotomy while animals were under anesthesia. Microvessel permeability was assessed by measuring one of the permeability coefficients, hydraulic conductivity, Lp, using the modified […] technique. The assumptions and limitations of the method have been evaluated in detail (31-33). […] The initial water flux (Jv) per unit area of microvessel wall (S), (Jv/S)0, was calculated from the velocity of the marker cell after the vessel was occluded, the vessel radius, and the length between the marker cell and the occlusion site. Microvessel Lp was calculated from the Starling equation, Lp=(Jv/S)/ΔP, where ΔP represents the pressure difference between the hydrostatic pressure applied to the microvessel and the effective oncotic pressure generated from the albumin in the perfusate, assuming the tissue hydrostatic and oncotic pressures are negligible (31). In each experiment, baseline Lp and the stimulus-induced Lp changes were measured in the same vessel, which allows the changes to be compared with its own control. […]
# [4] = test system: S1PR1 in HEK293A-S1P1-GFP cells; test: S1PR1 internalization assay; assay type: cell-based; conditions: 5 μM W146
# Procedure: […] cells were plated on collagen-coated coverslips (30). Cells were cultured overnight in DMEM with 2% charcoal-stripped serum. Prior to the experiment, cells were cultured in serum-free DMEM for 1.5 hours.
# A375M-GFP melanoma cells = test: Experimental lung metastasis model, A375M-GFP; assay type: in vivo, Athymic Foxn1nu nude mice; conditions: 5 mg/kg intraperitoneally 6, 12 or 18 hours before cells, day 29; control 62
# Procedure: […] lacking Compound I (Lipo) vehicle control, for 6, 12 or 18 hours prior to intravenous injection of 1 million A375M-GFP cells through the tail vein. […] For experiments using UACC 903M-GFP and 1205Lu-GFP cells, 15 mg/kg of the nanoliposomal formulation were given 6 hours before cancer cell injection. Body weight was monitored to ensure no significant toxicity during the experimental metastasis assay. On day 29, whole lungs were removed and imaged by fluorescent microscopy to quantify the numbers of metastatic nodules in a double-blinded manner.
structure (smiles),measurement,setting,value
CC(=O)N1CCN(C(=O)/C=C/c2ccc(Sc3ccccc3C(C)C)c([N+](=O)[O-])c2)CC1 [Compound A286982],"EC gap formation, screening of inflammatory inhibitors",HUVEC,did not decrease EC gap formation
"Oc1cccc(-c2noc(-c3cc(-c4ccccc4)c(C(F)(F)F)s3)n2)c1 [Compound I, 3-[5-(4-Phenyl-5-trifluoromethyl-thiophen-2-yl)-[1,2,4]oxadiazol-3-yl]-phenol]",levels or activity of biomarker proteins in signaling pathways (off-target effects),[1],No significant changes
same,EC50,S1PR1,0.043 µM
same,EC gap formation induced by VEGF,HUVEC,reduced the EC gap formation
same,EC gap formation induced by IL-8,HUVEC,reduced the EC gap formation
same,EC gap formation induced by BK,HUVEC,reduced the EC gap formation
same,"EC gap formation, agonist alone",HUVEC,did not affect EC gap formation
same,"EC gap formation, screening of inflammatory inhibitors",HUVEC,inhibited EC gap formation
same,endothelial gap formation induced by MIC-1 and BK,HUVEC; confluent HUVEC monolayer,inhibited the endothelial gap formation
same,endothelial gap formation induced by MIC-1 and VEGF,HUVEC; confluent HUVEC monolayer,inhibited the endothelial gap formation
same,MLC phosphorylation induced by MIC-1 and inflammatory mediators,[2]; FIG. 15E,inhibited the MLC phosphorylation
same,"pMLC levels raised by BK, VEGF or IL-8","[2]; HUVEC, western blotting",reverse and decrease the pMLC levels
same,"pMLC levels, Compound I alone","[2]; HUVEC, western blotting",did not increase pMLC levels
CCCCCCc1cccc(NC(=O)[C@H](N)CCP(=O)(O)O)c1 [Compound W146],effect of W146 on the formulation's inhibition of PAF-induced Lp increase,[3]; W146 10 μM,abolished the effect of the nanoliposomal formulation
same,effect of W146 on Compound I inhibition of BK-mediated EC gap formation,HUVEC; 5 μM W146,blocked the effect of Compound I
same,effect of W146 on internalization mediated by Compound I and SEW2871,[4],blocked
COC(=O)c1ccc2c(c1)NC(=O)/C2=C(\Nc1ccc(N(C)C(=O)CN2CCN(C)CC2)cc1)c1ccccc1 [Nintedanib],"EC gap formation, screening of inflammatory inhibitors",HUVEC,did not decrease EC gap formation
O=C(Nc1c(Cl)cncc1Cl)c1ccc(OC(F)F)c(OCC2CC2)c1 [Roflumilast],"EC gap formation, screening of inflammatory inhibitors",HUVEC,did not decrease EC gap formation
FC(F)(F)c1cccc(-c2noc(-c3cc(-c4ccccc4)c(C(F)(F)F)s3)n2)c1 [SEW2871],metastatic nodules in the lung,A375M-GFP melanoma cells,17-27
same,PAF-induced mean Lp,"[3]; PAF 10 nM in presence of SEW2871 10 PM (printed), n=6",1.73±0.15 times that of the control
same,effect on baseline Lp,"[3]; SEW2871 10 PM (printed), perfusion 30 minutes",did not change the baseline Lp
same,EC gap formation induced by VEGF,HUVEC,reduced the EC gap formation
same,EC gap formation induced by IL-8,HUVEC,reduced the EC gap formation
same,EC gap formation induced by BK,HUVEC,reduced the EC gap formation
same,"EC gap formation, agonist alone",HUVEC,did not affect EC gap formation
same,"EC gap formation, screening of inflammatory inhibitors",HUVEC,inhibited EC gap formation
same,endothelial gap formation induced by MIC-1 and BK,HUVEC; confluent HUVEC monolayer,inhibited the endothelial gap formation
C=CC[C@@H]1/C=C(\C)C[C@H](C)C[C@H](OC)[C@H]2O[C@@](O)(C(=O)C(=O)N3CCCC[C@H]3C(=O)O[C@H](/C(C)=C/[C@@H]3CC[C@@H](O)[C@H](OC)C3)[C@H](C)[C@@H](O)CC1=O)[C@H](C)C[C@@H]2OC [Tacrolimus],"EC gap formation, screening of inflammatory inhibitors",HUVEC,did not decrease EC gap formation
